Patent US8691859B2 (priority 2005, dated 2014)
Values after ≈ are worked out from the molar mass of the structure shown.

How the values were obtained:
[1] = system: B. anthracis GFP sterne vegetative cells; test: microbe, parasite or virus in culture; assay type: cell-based; conditions: for MIC: Bacillus anthracis, read-out: MIC B. anthracis vegetative cells
[2] = system: B. anthracis GFP sterne spores; test: microbe, parasite or virus in culture; assay type: cell-based; conditions: for MIC: Bacillus anthracis, read-out: MIC B. anthracis spores

## Cc1cc(N)c2cc(NC(=O)Nc3ccc4nc(C)cc(N)c4c3)ccc2n1 [NSC 12155, 1,3-bis(4-amino-2-methyl-quinolin-6-yl)urea]
[1]
  MIC: 17.8 µg/mL (≈ 47.8 µM)
[2]
  MIC: 4.45 µg/mL (≈ 11.9 µM)

## Cc1cc2nc(C=Cc3nc4cc(C)c(C)cc4[nH]3)[nH]c2cc1C [NSC 92833, 2-[2-(5,6-dimethyl-1H-benzoimidazol-2-yl)ethenyl]-5,6-dimethyl-1H-benzoimidazole]
[1]
  MIC: > 12.6 µg/mL
[2]
  MIC: > 12.6 µg/mL

## C(=Cc1nc2ccccc2[nH]1)c1nc2ccccc2[nH]1 [NSC 103699, 2-[2-(1H-benzoimidazol-2-yl)ethenyl]-1H-benzoimidazole]
[1]
  MIC: > 10.4 µg/mL
[2]
  MIC: > 10.4 µg/mL

## OCCn1c(C=Cc2nc3ccccc3[nH]2)nc2ccccc21 [NSC 103701, 2-[2-[2-(1H-benzoimidazol-2-yl)ethenyl]benzoimidazol-1-yl]ethanol]
[1]
  MIC: > 12.2 µg/mL
[2]
  MIC: > 12.2 µg/mL

## CC(O)C(=O)O.N=C(N)c1ccc(-c2cc3ccc(C(=N)N)cc3s2)cc1 [NSC 240890, 2-(4-carbamimidoylphenyl)benzothiophene-6-carboximidamide; 2-hydroxypropanoic acid]
[1]
  MIC: > 19 µg/mL
[2]
  MIC: > 19 µg/mL

## N=C(N)c1ccc(-c2cc3cc(C(=N)N)ccc3s2)cc1 [NSC 240891, 2-(4-carbamimidoylphenyl)benzothiophene-5-carboximidamide]
[1]
  MIC: > 14.7 µg/mL
[2]
  MIC: > 14.7 µg/mL

## N=C(N)c1ccc(-c2nc3ccc(C(=N)N)cc3[nH]2)cc1 [NSC 240894, 2-(4-carbamimidoylphenyl)-3H-benzoimidazole-5-carboximidamide]
[1]
  MIC: > 14 µg/mL
[2]
  MIC: > 14 µg/mL

## N=C(N)c1ccc(-n2cc3cc(C(=N)N)ccc3n2)cc1 [NSC 240895, 2-(4-carbamimidoylphenyl)indazole-5-carboximidamide]
[1]
  MIC: > 14 µg/mL
[2]
  MIC: > 14 µg/mL

## N=C(N)c1ccc(-n2nc3ccc(C(=N)N)cc3n2)cc1 [NSC 240896, 2-(4-carbamimidoylphenyl)benzotriazole-5-carboximidamide]
[1]
  MIC: > 14.1 µg/mL
[2]
  MIC: > 14.1 µg/mL

## N=C(N)c1ccc(-c2[nH]c3cc(C(=N)N)ccc3c2-c2ccccc2)cc1 [NSC 240897, 2-(4-carbamimidoylphenyl)-3-phenyl-1H-indole-6-carboximidamide]
[1]
  MIC: 17 µg/mL (≈ 48.2 µM)
[2]
  MIC: 8.52 µg/mL (≈ 24.1 µM)

## N=C(N)c1ccc(-c2cc(-c3ccc(C(=N)N)cc3)on2)cc1 [NSC 240900, 4-[3-(4-carbamimidoylphenyl)oxazol-5-yl]benzenecarboximidamide]
[1]
  MIC: > 15.1 µg/mL
[2]
  MIC: > 15.1 µg/mL

## N=C(N)c1ccc2oc(/C=C/c3cc4cc(C(=N)N)ccc4s3)cc2c1 [NSC 266472, 2-[(E)-2-(5-carbamimidoylbenzothiophen-2-yl)ethenyl]benzofuran-5-carboximidamide]
[1]
  MIC: 17.3 µg/mL (≈ 48.1 µM)
[2]
  MIC: 8.66 µg/mL (≈ 24 µM)

## N=C(N)c1ccc2nc(/C=C/c3nc4ccc(C(=N)N)cc4[nH]3)[nH]c2c1 [NSC 266475, 2-[(E)-2-(5-carbamimidoyl-3H-benzoimidazol-2-yl)ethenyl]-3H-benzoimidazole-5-carboximidamide]
[1]
  MIC: > 16.7 µg/mL
[2]
  MIC: > 16.7 µg/mL

## N=C(N)c1ccc2oc(CCc3cc4cc(C(=N)N)ccc4o3)cc2c1 [NSC 266477, 2-[2-(5-carbamimidoylbenzofuran-2-yl)ethyl]benzofuran-5-carboximidamide]
[1]
  MIC: > 16.8 µg/mL
[2]
  MIC: > 16.8 µg/mL

## Nc1ccc(C2=Cc3ccc(N)cc3S2(=O)=O)cc1 [NSC 266482, 2-(4-aminophenyl)-1,1-dioxo-benzothiophen-6-amine]
[1]
  MIC: > 10.9 µg/mL
[2]
  MIC: > 10.9 µg/mL

## c1cc(-c2cc3ccc(C4=NCCN4)cc3[nH]2)ccc1C1=NCCN1 [NSC 278995, 6-(4,5-dihydro-1H-imidazol-2-yl)-2-[4-(4,5-dihydro-1H-imidazol-2-yl)phenyl]-1H-indole]
[1]
  MIC: > 16.1 µg/mL
[2]
  MIC: > 16.1 µg/mL

## c1cc(-c2cc3ccc(C4=NCCN4)cc3s2)ccc1C1=NCCN1 [NSC 278996, 2-[2-[4-(4,5-dihydro-1H-imidazol-2-yl)phenyl]benzothiophen-6-yl]-4,5-dihydro-1H-imidazole]
[1]
  MIC: > 16.8 µg/mL
[2]
  MIC: > 16.8 µg/mL

## C(=C\c1cc2cc(C3=NCCN3)ccc2o1)/c1cc2cc(C3=NCCN3)ccc2o1 [NSC 278999, 2-[2-[(E)-2-[5-(4,5-dihydro-1H-imidazol-2-yl)benzofuran-2-yl]ethenyl]benzofuran-5-yl]-4,5-dihydro-1H-imidazole]
[1]
  MIC: > 18.8 µg/mL
[2]
  MIC: > 18.8 µg/mL

## O=C(Nc1ccc(C2=NCCN2)cc1)c1cc2cc(C3=NCCN3)ccc2o1 [NSC 290111, 5-(4,5-dihydro-1H-imidazol-2-yl)-N-[4-(4,5-dihydro-1H-imidazol-2-yl)phenyl]benzofuran-2-carboxamide]
[1]
  MIC: > 17.8 µg/mL
[2]
  MIC: 17.8 µg/mL (≈ 47.8 µM)

## N=C(N)c1ccc2cc(/C=C/c3cc4ccc(C(=N)N)cc4o3)oc2c1 [NSC 294199, 2-[(E)-2-(6-carbamimidoylbenzofuran-2-yl)ethenyl]benzofuran-6-carboximidamide]
[1]
  MIC: 16.7 µg/mL (≈ 48.4 µM)
[2]
  MIC: 8.34 µg/mL (≈ 24.2 µM)

## N=C(N)c1ccc2oc(/C=C/c3cc4ccc(C(=N)N)cc4o3)cc2c1 [NSC 294202, 2-[(E)-2-(5-carbamimidoylbenzofuran-2-yl)ethenyl]benzofuran-6-carboximidamide]
[1]
  MIC: > 16.7 µg/mL
[2]
  MIC: > 16.7 µg/mL

## N=C(N)c1ccc(NC(=O)c2cc3ccc(C(=N)N)cc3o2)cc1 [NSC 294207, 6-carbamimidoyl-N-(4-carbamimidoylphenyl)benzofuran-2-carboxamide]
[1]
  MIC: > 15.8 µg/mL
[2]
  MIC: > 15.8 µg/mL

## O=C(Nc1ccc(C2=NCCN2)cc1)c1cc2ccc(C3=NCCN3)cc2o1 [NSC 294208, 6-(4,5-dihydro-1H-imidazol-2-yl)-N-[4-(4,5-dihydro-1H-imidazol-2-yl)phenyl]benzofuran-2-carboxamide]
[1]
  MIC: > 17.8 µg/mL
[2]
  MIC: > 17.8 µg/mL

## C(=C\c1cc2ccc(C3=NCCN3)cc2o1)/c1cc2ccc(C3=NCCN3)cc2o1 [NSC 294494, 2-[2-[(E)-2-[6-(4,5-dihydro-1H-imidazol-2-yl)benzofuran-2-yl]ethenyl]benzofuran-6-yl]-4,5-dihydro-1H-imidazole]
[1]
  MIC: 18.8 µg/mL (≈ 47.3 µM)
[2]
  MIC: 18.8 µg/mL (≈ 47.3 µM)

## N=C(N)c1ccc(-c2[nH]c3cc(C(=N)N)ccc3c2N)cc1 [NSC 300509, 3-amino-2-(4-carbamimidoylphenyl)-1H-indole-6-carboximidamide]
[1]
  MIC: > 14.6 µg/mL
[2]
  MIC: > 14.6 µg/mL

## N=C(N)c1ccc(-c2ccc(-c3ccc(C(=N)N)cc3)s2)cc1 [NSC 300510, 4-[5-(4-carbamimidoylphenyl)thiophen-2-yl]benzenecarboximidamide]
[1]
  MIC: > 15.7 µg/mL
[2]
  MIC: 15.7 µg/mL (≈ 49.1 µM)

## N=C(N)c1ccc(/C=C/c2cc3cc(C(=N)N)ccc3o2)cc1 [NSC 300512, 2-[(E)-2-(4-carbamimidoylphenyl)ethenyl]benzofuran-5-carboximidamide]
[1]
  MIC: > 15.1 µg/mL
[2]
  MIC: > 15.1 µg/mL

## c1cc(-c2cc3cc(C4=NCCN4)ccc3s2)ccc1C1=NCCN1 [NSC 308569, 2-[2-[4-(4,5-dihydro-1H-imidazol-2-yl)phenyl]benzothiophen-5-yl]-4,5-dihydro-1H-imidazole]
[1]
  MIC: > 16.8 µg/mL
[2]
  MIC: > 16.8 µg/mL

## C(=C\c1cc2cc(C3=NCCN3)ccc2o1)/c1ccc(C2=NCCN2)cc1 [NSC 308570, 2-[2-[(E)-2-[4-(4,5-dihydro-1H-imidazol-2-yl)phenyl]ethenyl]benzofuran-5-yl]-4,5-dihydro-1H-imidazole]
[1]
  MIC: 17.2 µg/mL (≈ 48.1 µM)
[2]
  MIC: 17.2 µg/mL (≈ 48.1 µM)

## C(/C=C/c1cc2cc(C3=NCCN3)ccc2o1)=C\c1ccc(C2=NCCN2)cc1 [NSC 308573, 2-[2-[(1E,3E)-4-[4-(4,5-dihydro-1H-imidazol-2-yl)phenyl]buta-1,3-dienyl]benzofuran-5-yl]-4,5-dihydro-1H-imidazole]
[1]
  MIC: 18.2 µg/mL (≈ 47.6 µM)
[2]
  MIC: 18.2 µg/mL (≈ 47.6 µM)

## C(=C\c1cc2cc(C3=NCCN3)ccc2s1)/c1ccc(C2=NCCN2)cc1 [NSC 317883, 2-[2-[(E)-2-[4-(4,5-dihydro-1H-imidazol-2-yl)phenyl]ethenyl]benzothiophen-5-yl]-4,5-dihydro-1H-imidazole]
[1]
  MIC: 17.8 µg/mL (≈ 47.8 µM)
[2]
  MIC: 17.8 µg/mL (≈ 47.8 µM)

## c1cc2cc(-c3cc4ccc(C5=NCCN5)cc4[nH]3)[nH]c2cc1C1=NCCN1 [NSC 330688, 6-(4,5-dihydro-1H-imidazol-2-yl)-2-[6-(4,5-dihydro-1H-imidazol-2-yl)-1H-indol-2-yl]-1H-indole]
[1]
  MIC: 1.1 µg/mL (≈ 2.99 µM)
[2]
  MIC: 0.551 µg/mL (≈ 1.5 µM)

## N=C(N)c1ccc2c(c1)=NC(=C(N)N)C=2 [NSC 330689, 2-(diaminomethylidene)indole-6-carboximidamide]
[1]
  MIC: > 11 µg/mL
[2]
  MIC: > 11 µg/mL

## C(=C\c1cc2ccc(C3=NCCN3)cc2[nH]1)/c1ccc(Oc2ccc(C3=NCCN3)cc2)cc1 [NSC 330690, 6-(4,5-dihydro-1H-imidazol-2-yl)-2-[(E)-2-[4-[4-(4,5-dihydro-1H-imidazol-2-yl)phenoxy]phenyl]ethenyl]-1H-indole]
[1]
  MIC: 2.6 µg/mL (≈ 5.81 µM)
[2]
  MIC: 2.6 µg/mL (≈ 5.81 µM)

## NC(N)=Nc1ccc(-c2cc3cc(N=C(N)N)ccc3s2)cc1 [NSC 341910, 2-[2-[4-(diaminomethylideneamino)phenyl]benzothiophen-5-yl]guanidine]
[1]
  MIC: > 15.9 µg/mL
[2]
  MIC: 15.9 µg/mL (≈ 48.9 µM)

## c1cc(-c2[nH]c3cc(C4=NCCN4)ccc3c2-c2cc3ccc(C4=NCCN4)cc3[nH]2)ccc1C1=NCCN1 [NSC 352341, 6-(4,5-dihydro-1H-imidazol-2-yl)-3-[6-(4,5-dihydro-1H-imidazol-2-yl)-1H-indol-2-yl]-2-[4-(4,5-dihydro-1H-imidazol-2-yl)phenyl]-1H-indole]
[1]
  MIC B. anthracis vegetative cells: 13.64 µg/mL (≈ 26.6 µM)
[2]
  MIC B. anthracis spores: 6.82 µg/mL (≈ 13.3 µM)

## c1cc(-c2nc3ccc(-c4nc5ccc(C6=NCCN6)cc5[nH]4)cc3[nH]2)ccc1C1=NCCN1 [NSC 369721, 5-(4,5-dihydro-1H-imidazol-2-yl)-2-[2-[4-(4,5-dihydro-1H-imidazol-2-yl)phenyl]-3H-benzoimidazol-5-yl]-3H-benzoimidazole]
[1]
  MIC: 22.3 µg/mL (≈ 49.9 µM)
[2]
  MIC: 1.39 µg/mL (≈ 3.11 µM)

## Glycine, N-acetyl-, compound with 2,2′-(1,{2-ethenediyl)bis[5-benzofurancarboximidamide]} (2:1) [NSC 341082]
[1]
  MIC B. anthracis vegetative cells: >23.16 µg/mL
[2]
  MIC B. anthracis spores: >23.16 µg/mL
